# Values of other authors in Sander's compilation of Henry's law constants (doi:10.1021/je0002282).
# Assay: Henry solubility constant Hcp at 298.15 K (mol/(m3 Pa))
# Conditions: reference: Plyasunov and Shock (2001); cited value
row,Compound,Henry solubility constant Hcp
1,"CC(C)C(=O)C(C)C [2,4-dimethyl-3-pentanone]",0.024
2,CCCCCC(C)=O [2-heptanone],0.072
3,CCC(=O)C(C)C [2-methyl-3-pentanone],0.053
4,CCCCCCCC(C)=O [2-nonanone],0.037
5,CCCC(C)=O [2-pentanone],0.13
6,CCCCCCCCCC(C)=O [2-undecanone],0.019
7,"CC(=O)C(C)(C)C [3,3-dimethyl-2-butanone]",0.045
8,CC(=O)C(C)C [3-methyl-2-butanone],0.091
9,CCCC(=O)CCC [4-heptanone],0.061
10,CC(=O)CC(C)C [4-methyl-2-pentanone],0.069
11,CC(C)=O [propanone],0.27

# Now from value to molecule:
row,Henry solubility constant Hcp,Compound
1,0.013,"CC(C)CC(=O)CC(C)C [2,6-dimethyl-4-heptanone]"
2,0.098,CCCCC(C)=O [2-hexanone]
3,0.058,CCCCCCC(C)=O [2-octanone]
4,0.075,CCCC(=O)CC [3-hexanone]
5,0.11,CCC(=O)CC [3-pentanone]
